Experiment: Whole body autoradiography after 30-minute 3 mg/kg IV infusion of [^14C]-tigecycline
Type: in vivo, Sprague-Dawley rats
Method: Male Sprague-Dawley and Long-Evans rats were obtained from Charles River Breeding Laboratories, Raleigh, N.C., and were quarantined for at least one week prior to the start of the study. […] The dosing solution was diluted and radioassayed directly in Ultima Gold scintillation counting cocktail (Packard Inc.). […] All pumps were calibrated prior to the administration of the compound. Rats were anesthetized with isoflurane prior to cardiac puncture exsanguination at the prescribed times after dosing. […] Control whole blood was collected from male Sprague-Dawley rats into tubes containing sodium heparin. Pooled blood was used to prepare the calibration standards and quality control samples. The standards were used to construct the standard curve for the quantification of radiolabeled drug distribution in tissues of whole blood cryosections. The quality controls, which were embedded in the same CMC block with each rat, were used for assessing intra- and inter-section variation in the thickness of rat whole-body cryosections. […] Immediately following euthanasia, each rat was totally immersed in a bath of hexane and dry ice (−75° C.) until frozen. Each carcass was dried and stored at −30° C. until embedded. […] Each frozen rat was sagitally sectioned at −20° C. A sufficient number of sections were collected to ensure sampling of all tissues of interest. The sections were dehydrated overnight in a cryochamber and then rapidly transferred to a dessicator containing CaSO4 to prevent condensation of atmospheric moisture while equilibrating to room temperature. The sections were mounted on cardboard and labeled with [^14C]-labeled black ink with a unique identification number. […] A small piece of Scotch tape was placed over the dried radioactive ink to prevent the contamination of the storage phosphor screens. Phosphor imaging plates, BAS-SR 2025 (Fuji Photo Film Co., Japan) were exposed to bright visible light for 20 minutes using an IP eraser (Raytest, USA Inc., New Castle, Del.) to remove background radiation. Sections and calibration blood standards were concurrently placed in direct contact with Ips and exposed for 7 days. All sections were stored at room temperature in a lead shielding box to minimize background levels. Phosphor images were generated using a Fujifilm BAS-5000 Bio-Imaging Analyzer and quantitated by MCID M2 Software, version 3.2 (Imaging Research Inc., St. Catherines, Ontario, Canada). The STDs and QCs were analyzed using the circular sampling tool in the MCID software program. Areas of interest in whole-body sections were manually outlined with the regional sampling tool to generate count data. Radioactive concentrations in select tissues were determined by digital analysis of the resulting autoradiograms on the basis of a calibration curve. […] The linear regression curve was then used to determine the concentration of unknown radioactivity of study samples. […] Blood samples were combusted using a Model 307 sample oxidizer (Packard Instrument Company). […] Research Triangle Park, N.C.), which applies a model-independent approach and standard procedures as described in Gibaldi and Perrier. Gibaldi, Pharmacokinetics, 1982. […] For IV infusion dosing, C30 min was the concentration at 30 minutes, the first sampling time point. The maximum plasma concentration (Cmax) and the corresponding time of peak concentration following IV administration were obtained directly by numerical inspection from the individual concentration-time data. The terminal half-life was calculated by the ratio of ln2/λz where λz is derived from the terminal slope of the concentration time curve. The area under the plasma concentration versus time curve from zero to infinity was calculated using the trapezoidal rule, where Clast is the last measurable plasma concentration. […]

CN(C)c1cc(NC(=O)CNC(C)(C)C)c(O)c2c1C[C@H]1C[C@H]3[C@H](N(C)C)C(O)=C(C(N)=O)C(=O)[C@@]3(O)C(O)=C1C2=O [[^14C]-Tigecycline]
AUC (Adrenal Gland): 29515 Ng eq hr/g | Mean concentration of total radioactivity (Adrenal Gland, 0.5 Hrs): 3580 ng equiv./g | Tissue:Plasma Ratio (Adrenal Gland, 0.5 Hrs): 4.00 | Mean concentration of total radioactivity (Adrenal Gland, 8.5 Hrs): 941 ng equiv./g | Tissue:Plasma Ratio (Adrenal Gland, 8.5 Hrs): 1.87 | Mean concentration of total radioactivity (Adrenal Gland, 24 Hrs): 68.9 ng equiv./g | Tissue:Plasma Ratio (Adrenal Gland, 24 Hrs): 4.67 | Mean concentration of total radioactivity (Adrenal Gland, 72 Hrs): 19.3 ng equiv./g | Tissue:Plasma Ratio (Adrenal Gland, 72 Hrs): 4.47 | Mean concentration of total radioactivity (Adrenal Gland, 168 Hrs): <5.10 ng equiv./g | Mean concentration of total radioactivity (Adrenal Gland, 336 Hrs): <5.10 ng equiv./g | AUC (Adrenal Gland, first AUC column): 29153 Ng eq hr/g | AUC (Blood): 1261 Ng eq hr/g | Tissue:Plasma Ratio (Blood, 0.5 Hrs): 1.43 | Tissue:Plasma Ratio (Blood, 8.5 Hrs): 1.24 | Tissue:Plasma Ratio (Blood, 24 Hrs): 3.01 | Tissue:Plasma Ratio (Blood, 72 Hrs): 2.74 | AUC (Blood, first AUC column): 12063 Ng eq hr/g | AUC (Bone): 794704 Ng eq hr/g | AUC (Bone Marrow): 47468 Ng eq hr/g | Mean concentration of total radioactivity (Bone Marrow, 0.5 Hrs): 4376 ng equiv./g | Tissue:Plasma Ratio (Bone Marrow, 0.5 Hrs): 4.89 | Mean concentration of total radioactivity (Bone Marrow, 8.5 Hrs): 1562 ng equiv./g | Tissue:Plasma Ratio (Bone Marrow, 8.5 Hrs): 3.10 | Mean concentration of total radioactivity (Bone Marrow, 24 Hrs): 291 ng equiv./g | Tissue:Plasma Ratio (Bone Marrow, 24 Hrs): 19.7 | Mean concentration of total radioactivity (Bone Marrow, 72 Hrs): 22.5 ng equiv./g | Tissue:Plasma Ratio (Bone Marrow, 72 Hrs): 5.21 | Mean concentration of total radioactivity (Bone Marrow, 168 Hrs): <5.10 ng equiv./g | Mean concentration of total radioactivity (Bone Marrow, 336 Hrs): <5.10 ng equiv./g | AUC (Bone Marrow, first AUC column): 47116 Ng eq hr/g | Mean concentration of total radioactivity (Bone, 0.5 Hrs): 3312 ng equiv./g | Tissue:Plasma Ratio (Bone, 0.5 Hrs): 3.70 | Mean concentration of total radioactivity (Bone, 8.5 Hrs): 3794 ng equiv./g | Tissue:Plasma Ratio (Bone, 8.5 Hrs): 7.53 | Mean concentration of total radioactivity (Bone, 24 Hrs): 2711 ng equiv./g | Tissue:Plasma Ratio (Bone, 24 Hrs): 184 | Mean concentration of total radioactivity (Bone, 72 Hrs): 1787 ng equiv./g | Tissue:Plasma Ratio (Bone, 72 Hrs): 414 | Mean concentration of total radioactivity (Bone, 168 Hrs): 1526 ng equiv./g | Mean concentration of total radioactivity (Bone, 336 Hrs): 720 ng equiv./g | AUC (Bone, first AUC column): 569498 Ng eq hr/g | AUC (Brain): 2865 Ng eq hr/g | Cmax (Brain): 54 Ng equiv/g | Mean concentration of total radioactivity (Brain, 0.5 Hrs): 35.8 ng equiv./g | Tissue:Plasma Ratio (Brain, 0.5 Hrs): 0.040 | Mean concentration of total radioactivity (Brain, 8.5 Hrs): 54.3 ng equiv./g | Tissue:Plasma Ratio (Brain, 8.5 Hrs): 0.108 | Mean concentration of total radioactivity (Brain, 24 Hrs): 35.8 ng equiv./g | Tissue:Plasma Ratio (Brain, 24 Hrs): 2.42 | Mean concentration of total radioactivity (Brain, 72 Hrs): 13.3 ng equiv./g | Tissue:Plasma Ratio (Brain, 72 Hrs): 3.10 | Mean concentration of total radioactivity (Brain, 168 Hrs): <5.10 ng equiv./g | Mean concentration of total radioactivity (Brain, 336 Hrs): <5.10 ng equiv./g | AUC (Brain, first AUC column): 2256 Ng eq hr/g | AUC (Eyes): 3221 Ng eq hr/g | Cmax (Eyes): 108 Ng equiv/g | Mean concentration of total radioactivity (Eyes, 0.5 Hrs): 106 ng equiv./g | Tissue:Plasma Ratio (Eyes, 0.5 Hrs): 0.118 | Mean concentration of total radioactivity (Eyes, 8.5 Hrs): 108 ng equiv./g | Tissue:Plasma Ratio (Eyes, 8.5 Hrs): 0.215 | Mean concentration of total radioactivity (Eyes, 24 Hrs): 36.6 ng equiv./g | Tissue:Plasma Ratio (Eyes, 24 Hrs): 2.46 | Mean concentration of total radioactivity (Eyes, 72 Hrs): 6.76 ng equiv./g | Tissue:Plasma Ratio (Eyes, 72 Hrs): 1.57 | Mean concentration of total radioactivity (Eyes, 168 Hrs): <5.10 ng equiv./g | Mean concentration of total radioactivity (Eyes, 336 Hrs): <5.10 ng equiv./g | AUC (Eyes, first AUC column): 3060 Ng eq hr/g | AUC (Fat): 3500 Ng eq hr/g | Mean concentration of total radioactivity (Fat, 0.5 Hrs): 450 ng equiv./g | Tissue:Plasma Ratio (Fat, 0.5 Hrs): 0.50 | Mean concentration of total radioactivity (Fat, 8.5 Hrs): 144 ng equiv./g | Tissue:Plasma Ratio (Fat, 8.5 Hrs): 0.287 | Mean concentration of total radioactivity (Fat, 24 Hrs): <5.1 ng equiv./g | Mean concentration of total radioactivity (Fat, 72 Hrs): <5.10 ng equiv./g | Mean concentration of total radioactivity (Fat, 168 Hrs): <5.10 ng equiv./g | Mean concentration of total radioactivity (Fat, 336 Hrs): <5.10 ng equiv./g | AUC (Fat, first AUC column): 2489 Ng eq hr/g | AUC (Heart): 40179 Ng eq hr/g | Mean concentration of total radioactivity (Heart, 0.5 Hrs): 5657 ng equiv./g | Tissue:Plasma Ratio (Heart, 0.5 Hrs): 6.32 | Mean concentration of total radioactivity (Heart, 8.5 Hrs): 1138 ng equiv./g | Tissue:Plasma Ratio (Heart, 8.5 Hrs): 2.26 | Mean concentration of total radioactivity (Heart, 24 Hrs): 69.9 ng equiv./g | Tissue:Plasma Ratio (Heart, 24 Hrs): 4.74 | Mean concentration of total radioactivity (Heart, 72 Hrs): 6.98 ng equiv./g | Tissue:Plasma Ratio (Heart, 72 Hrs): 1.62 | Mean concentration of total radioactivity (Heart, 168 Hrs): <5.10 ng equiv./g | Mean concentration of total radioactivity (Heart, 336 Hrs): <5.10 ng equiv./g | AUC (Heart, first AUC column): 40083 Ng eq hr/g | AUC (Kidney): 70704 Ng eq hr/g | Cmax (Kidney): 7601 Ng equiv/g | Mean concentration of total radioactivity (Kidney, 0.5 Hrs): 7601 ng equiv./g | Tissue:Plasma Ratio (Kidney, 0.5 Hrs): 8.49 | Mean concentration of total radioactivity (Kidney, 8.5 Hrs): 1725 ng equiv./g | Tissue:Plasma Ratio (Kidney, 8.5 Hrs): 3.42 | Mean concentration of total radioactivity (Kidney, 24 Hrs): 140 ng equiv./g | Tissue:Plasma Ratio (Kidney, 24 Hrs): 9.49 | Mean concentration of total radioactivity (Kidney, 72 Hrs): 47.9 ng equiv./g | Tissue:Plasma Ratio (Kidney, 72 Hrs): 11.1 | Mean concentration of total radioactivity (Kidney, 168 Hrs): 41.3 ng equiv./g | Mean concentration of total radioactivity (Kidney, 336 Hrs): 13.9 ng equiv./g | AUC (Kidney, first AUC column): 68333 Ng eq hr/g | AUC (Liver): 53527 Ng eq hr/g | Cmax (Liver): 7300 Ng equiv/g | Mean concentration of total radioactivity (Liver, 0.5 Hrs): 7300 ng equiv./g | Tissue:Plasma Ratio (Liver, 0.5 Hrs): 8.16 | Mean concentration of total radioactivity (Liver, 8.5 Hrs): 1192 ng equiv./g | Tissue:Plasma Ratio (Liver, 8.5 Hrs): 2.37

From US20050148553A1, “Use of tigecycline, alone, or in combination with rifampin to treat osteomyelitis and/or septic arthritis” (priority 2003, published 2005)
